In patent publication US9290541B2, “TCL1 peptides for immunotherapy” (Board of Regents, The University of Texas System, priority 2011, dated 2016):

What was measured:
[1] = system: TCL171-78 tetramer positive T cells; experiment: Peptide titration, avidity of TCL1-specific CTL (IFN-γ ELISA); format: cell-based, human; conditions: T2 cells pulsed with various peptide concentrations; moderate avidity
Method: FIG. 15. Avidity of TCL1-specific CTL. TCL171-78 tetramer positive T cells were isolated from a TCL1-specific T cell line by MACS using TCL171-78 tetramer PE and anti-PE microbeads. The isolated T cells were incubated with T2 cells pulsed with various concentrations of TCL165-79 peptide and IFN-γ production was determined in the supernatants by ELISA after 18 hours. […] Representative data from one of two experiments.

[2] = system: PBMC from HLA-A2+ normal donors; experiment: IFN-γ ELISA of T cells stimulated with overlapping 15-mer TCL1 peptides; format: cell-based, human; conditions: three HLA-A2+ normal donors; 10 μg/ml peptide, 5 stimulations; ELISA after 18 hours
Method: FIGS. 3A-E: TCL1-specific cytotoxic T cells can be generated from normal donors. (FIG. 3A) PBMCs from HLA-A2^+ normal donors were stimulated with overlapping 15-mer peptides spanning the entire length of the TCL1 protein (see Table 2). T cells from each condition were washed and incubated with autologous CD3-depleted PBMC as antigen-presenting cells (APC) in the presence or absence of the corresponding peptide. After 18 hours, the production of IFN-γ was determined in the supernatants by ELISA. Asterisk indicates significant IFN-γ production compared with control (P<0.05). Representative data from one of three normal donors tested is shown. (FIG. 3B) T cell lines generated from HLA-A2^+ normal donors using TCL165-79 peptide were incubated with APC in the presence or absence of the TCL165-79 peptide or control HIV Gag77-85 peptide, and intracellular cytokine assay was performed. The percentage of CD4^+ and CD8^+ T cells producing IFN-γ are shown. […] IFN-γ production was determined as in (FIG. 3A). […]
Peptide-specific T-cell lines were generated from HLA-A2^+ normal donors and patients using methods previously reported (Hida et al., 2002). […] After 18 hours, the production of interferon (IFN)-γ was determined in the supernatants by ELISA. […]

Sequence: TQIGPSLLPIMWQLY [TCL165-79]
- lowest peptide concentration recognized by T cells [1]: 1 nM
- induction of peptide-specific IFN-γ-producing T cells [2]: consistently induced peptide-specific IFN-γ-producing T cells
